Laboratory results: patent US7759392B2, “Pharmaceutical compounds” (Nicox S.A., priority 1999, dated 2010)
Read-outs that look alike come from different tables or passages of the source.

Key:
gastrointestinal mucosa [1] = conditions: rat, in vivo, po
gastrointestinal mucosa [2] = conditions: male, Wistar, rat, in vivo, 6 h
Experimental: Gastric lesions induced by administration of the compounds of the invention in the confront of the corresponding drug precursor.
The animals have been sacrificed 6 hours after the administration. The gastrointestinal mucosa has been removed and inspected. The incidence of the gastrointestinal damage has been evaluated as described in experiment F1.

gastrointestinal mucosa [3] = conditions: rat, in vivo
Experimental: The animals (rats) are distributed in the following groups (no. 10 animals for group):
• 1° group: treatment: only carrier (aqueous suspension 1% w/v of carboxymethylcellulose, dose: 5 ml/Kg when the drug is administered by os, or a physiologic solution when parenterally administered, i.e. by subcutaneous, intraperitoneal, intravenous or intermuscular route), • 2° group: treatment: carrier as above defined+NEM, B) Groups Treated with the Drug: • group I: treatment: carrier+drug, • group II: treatment: carrier+drug+NEM.
The administration routes are those known for the drug, and can be the oral or subcutaneous, intraperitoneal, intravenous or intramuscular route.
The animals are sacrificed after 24 hours and then one proceeds to the evaluation of the damage to the gastrointestinal mucosa.
Test 1—experimental model in vivo with N-ethylmaleimide (NEM): study of the gastric tolerability of some drugs screened as precursors of the compounds of the invention.
The animals (rats, weight about 200 g) are distributed in the following groups (No. 10 animals for group):
• 1° group: treatment: only carrier (aqueous suspension 1% w/v of carboxymethylcellulose, dose: 5 ml/Kg when the drug is administered by os, physiologic solution when by parenteral route), • 2° group: treatment: carrier+NEM, B) Groups Administered with Each Drug: • group I: treatment: carrier+drug, • group II: treatment: carrier+drug+NEM.
The drug is administered one hour later, in suspension in the carrier. Animals are sacrificed after 24 hours and evaluation of the damage to the gastrointestinal mucosa is made by counting the number of rats, inside each group, with lesions to the stomach at a visual inspection. The total number of said rats is then divided by the total number of rats of the group and multiplied by 100.

[4] = tested on: human endothelial cells of the umbilical vein; test: Experiment F6: apoptosis (DNA fragmentation) induced in endothelial cells by hydrogen peroxide; type: cell-based; conditions: Endothelial cell, products 100 mmoles/l, hydrogen peroxide 200 mmoles/l, 18 hours, read-out: Apoptosis % (respect to the controls treated only with CIP)
Text: It has been Evaluated the Activity of Some of the Compounds Object of the Present Invention and of the Corresponding Precursor Drugs in Inhibiting DNA Degradation (Apoptosis) in Endothelial Cells Exposed to the Action of Hydrogen Peroxide (HP)
Hydrogen peroxide is a mild oxidant and is considered as an essential mediating agent in pathologies associated with oxidative stress (B. Halliwell, J. Gutteridge “Free Radicals in Biology and Medicine”, page 416, 1993). Therefore the pharmacological activity of compounds to be used under oxidative stress conditions is evaluated through their capability of neutralizing the cytolesive effects of the hydrogen peroxide (B. Halliwell, J. Gutteridge “Free Radicals in Biology and Medicine”, page 416, 1993).
The method described by Herman et Al. (Herman C., Zeiner M. A., Dimmeler S., Arterioscler. Thromb. Vasc. Biol. 17 (12), 3588-82, 1997).
Human endothelial cells of the umbilical vein are prepared according to a standard method. Fresh umbilical veins, just removed, are filled with a solution of collagenase at 0.1% and incubated at 37° C. for 5 minutes.
Subsequently the veins are perfused with medium M 199 (GIBCO, Grand Island, N.Y.) pH 7.4 containing 20% of human serum. The cells are collected from the perfusate by centrifugation at 800 rpm and harvested in culture flasks T-75, pretreated with human fibronectin. […]

[5] = tested on: human endothelial cells of the umbilical vein; test: Test 2 (CIP): apoptosis (DNA fragmentation) induced by cumene hydroperoxide in endothelial cells; type: cell-based; conditions: drug 10^-4 M; CIP 5 mM
Experimental: Test 2 (CIP): Protection parameter of endothelial cell against the oxidative stress induced by cumene hydroperoxide (CIP).
Human endothelial cells of the umbilical vein are prepared according to an usual standard procedure. Fresh umbilical veins are filled with a 0.1% by weight collagenase solution and incubated at 37° C. for 5 minutes.
The cells are collected from the perfusate by centrifugation and harvested in culture flasks T-75, pretreated with human fibronectin. The cells are then harvested in the same medium, further added with 10 ng/ml of bovine hypothalamic growth factor. When the cells of the primary cell culture (i.e. that directly obtained from ex-vivo) form a single layer of confluent cells (about 8,000,000 cells/flask), the culture is stopped and the layers washed and trypsinized. The cellular suspensions are transferred into the wells of a cell culture plate having 24 wells, half of which is then additioned with the same culture medium containing the drug at a 10^−4M concentration, and harvested in a thermostat at 37° C. at a constant moisture. Only the cells coming from said first sub-cultures are used for the experiments with cumene hydroperoxide (CIP).
Before starting the test, the cellular culture medium is removed and the cellular layers are carefully washed with a physiologic solution at a temperature of 37° C. The wells of the culture plate are then incubated for one hour with CIP at a 5 mM concentration in the culture medium. […] 5 replicates for each sample are carried out.
Human endothelial cells of the umbilical vein are prepared according to a standard method. Fresh umbilical veins are filled with a collagenase solution 0.1% by weight and incubated at 37° C. for 5 minutes.
The cells are collected from the perfusate by centrifugation at 800 rpm and harvested in culture flasks T-75, pretreated with human fibronectin. Cells are then harvested in the same medium, added with bovine hypothalamic growth factor (100 ng/ml). When the cells of the primary cell culture (the cells directly removed from ex-vivo umbilical vein) form a single layer of confluent cells (about 8,000,000 cells/flask), harvesting is stopped and the layers are washed and trypsinized. The cellular suspensions are transferred into wells of a culture plate having 24 wells, half of said wells being added with the same culture medium containing the drug at a 10^−4M concentration, and harvested in a thermostat at 37° C. at a constant moisture (90%), CO2=5%. When the drug is not soluble in the culture medium, it is formerly dissolved in a small amount of dimethylsulphoxide. The maximum amount of dimethylsulphoxide which can be added to the culture medium is 0.5%. Only the cells coming from these first subcultures are used for the tests with cumene hydroperoxide (CIP).
Before starting the test, the cellular culture medium is removed and the cellular layers are carefully washed with a standard physiologic solution buffered with phosphate 0.1 M pH 7.0, at the temperature of 37° C. The content of each well is then incubated for one hour with a CIP suspension in the culture medium at a 5 mM concentration. Evaluation of the cellular damage (apoptosis) is carried out by determining the percent variation of the DNA fragmentation in the cultures containing the drug+CIP with respect to the controls treated with CIP only. […] The fluorescence of each sample was determined on 5 replicates. Statistic evaluation has been made with t Student test (p<0.01).

| SMILES | Gastropathy % incidence (gastrointestinal mucosa [1]) [%] | Gastropathy % incidence (gastrointestinal mucosa [2]) [%] | Gastro-enteropathy (% incidence) without NEM (gastrointestinal mucosa [3]) [%] | gastrointestinal damages / gastric lesions in rats treated with NEM + drug (in words) (gastrointestinal mucosa [3]) | activity at 100000 µM [4] [%] | inhibition of apoptosis induced by CIP (in words, p<0.01) [5] |
| --- | --- | --- | --- | --- | --- | --- |
| CN(CCOC(=O)Cc1ccccc1Nc1c(Cl)cccc1Cl)CCO[N+](=O)[O-] [Example 14] | 20 | 0 | – | – | – | – |
| Nc1c2c(nc3ccccc13)CCCC2 [Tacrine, tacrine] | – | 60 | 0 | showed gastric lesions | 8 | do not significantly inhibit apoptosis |
